Measured values as given in patent US20040229873A1, “Treatment of neurodegenerative conditions” (BTG International Limited, priority 2003, published 2004).

Columns and labels:
[1] = tested on: patients suffering from MS; assay: Case studies of MS patients treated with Lamotrigine, compared with matching patients; format: in vivo, human
From the text: The average maintenance dose of Lamotrigine in these conditions is 400 mgs per day, but the initial dose or the rate of escalation may cause several side effects.
In the present study, the inventors followed the clinician inventor's clinical practice, which adopted two strategies that had varied from the manufacturer's recommendations. Firstly, a very slow titration process starting with 25 mgs per day increasing the dose gradually (often over several weeks) to avoid adverse events. Secondly, a maintenance dose with mean of 600 mgs per day was applied. Using these two strategies, the inventors observed improvement in the clinical activity of MS and also stabilisation of the disease process. The beneficial effects are illustrated in the following two case studies compared with matching patients who had not been treated with Lamotrigine.
The first treated patient was a person. […] They were referred to the clinician inventor in 1998, and their clinically active disease at that time represented a valid indication for treatment with diseases modifying therapy (β-interferon or Copaxone). However, the therapy could not be started because of financial constraints that were then imposed by their Health Authority. They also complained of sharp pain affecting the legs, which was resistant to several types of analgesia and also resistant to tricyclic antidepressants. Accordingly, treatment was started with Lamotrigine to treat their pain.
The initial dose was 25 mgs per day, which was escalated gradually as outlined above. Their Expanded Disability Status Scale at that time was 2.5. Their painful symptoms improved following Lamotrigine therapy. They also noticed improvement in their other MS-related symptoms, such as muscle spasticity in the legs and daytime fatigue. […] Their EDSS score remained stable at 2.5. Such improvement seemed to be related to Lamotrigine therapy because they had received no immunosuppressive or steroid therapy during the past four years.
A second of Lamotrigine-treated patient was a person, who was diagnosed with relapsing remitting MS five years ago. They also had idiopathic generalised epilepsy since childhood, which was treated with sodium valproate. In the first two years following the diagnosis of MS, they had three clinical relapses. Their seizures also deteriorated and because of this, their anti-epileptic therapy was changed from sodium valproate to Lamotrigine. This drug was introduced at a low dose, and was escalated cautiously as outlined above. Their EDSS score at the beginning of treatment with Lamotrigine was 1.5. […] This improvement seemed to be related to Lamotrigine therapy since they had received no treatment with steroids or immunosuppressive drugs.

[2] = tested on: multiple sclerosis patients; settings: cited from earlier work; for treatment of symptoms of MS / clinical positive and negative symptoms of MS: Sakurai and Kanazawa 1999; for clinical positive and negative symptoms of MS: low doses, lidocaine by iv infusion
[3] = seven MS patients, slow titration from 25 mgs per day, maintenance dose with mean of 600 mgs per day

With `CN(C)CCC=C1c2ccccc2CCc2ccccc21` [Amitriptyline] the clinical relapses ([1]; Example 1b control, person, active relapsing remitting MS) was “continued to have clinical relapses on a yearly basis” and the painful symptoms ([1]; Example 1b control, person, active relapsing remitting MS, intractable pain) was “improved”.
With `Nc1nnc(-c2cccc(Cl)c2Cl)c(N)n1` [Lamotrigine, 3,5-diamino-6-(2,3-dichlorophenyl)-1,2,4-triazine] the “other MS-related symptoms, such as muscle spasticity in the legs and daytime fatigue” value ([1]; Example 1a, person) was “improvement”, the clinical relapses ([1]; Example 1a, person, relapsing remitting MS, average of one severe relapse per year before, Lamotrigine from 25 mgs per day escalated gradually) was “no clinical relapses since 1998” and the painful symptoms ([1]; Example 1a, person, sharp pain affecting the legs) was “improved”. The EDSS score ([1]; Example 1a, person, remained stable under Lamotrigine (2.5 at start)) was 2.5, the clinical relapses ([1]; Example 2a, person, relapsing remitting MS, three relapses in first two years before Lamotrigine) was “no clinical relapses” and the EDSS score ([1]; Example 2a, person, remained stable under Lamotrigine (1.5 at start)) was 1.5. The MS activity ([1]; Examples 3-7, five other patients treated with Lamotrigine) was “clinical improvement”, the “clinical activity of MS” value [1, 3] was “improvement” and the disease process [1, 3] was “stabilisation”.
For `NC(=O)N1c2ccccc2C=Cc2ccccc21` [carbamazepine], the “treatment of symptoms of MS” value [2] is given as “without appropriate success” and the “disability in multiple sclerosis patients” value ([2]; even at relatively low doses, Ramsaransing et al (2000)) is given as “seriously enhance disability”.
In the case of `CCN(CC)CC(=O)Nc1c(C)cccc1C` [lidocaine], the “clinical positive and negative symptoms of MS” value [2] is listed as “generally improve clinical positive symptoms rather than worsening negative symptoms”.
In the case of `Cc1cccc(C)c1OCC(C)N` (stereo not shown) [mexiletine], the “clinical positive and negative symptoms of MS” value [2] is listed as “generally improve clinical positive symptoms rather than worsening negative symptoms”.
In the case of `O=C1NC(=O)C(c2ccccc2)(c2ccccc2)N1` [phenytoin], the “treatment of symptoms of MS” value [2] is given as “without appropriate success”.
